Data as given in patent US7247612B2, “Methods of treating an inflammatory disease with a JJT-1 polypeptide” (Japan Tobacco Inc., priority 1997, dated 2007).

Test system: rat lymphoblast cells activated with concanavalin A
Test: Aggregation of concanavalin A-activated rat lymphoblast cells
Format: cell-based
Conditions: ConA-activated rat lymphoblasts
Description: The hybridomas prepared in Example 1 were screened by analyzing the effect of the antibodies produced in the culture supernatant of the hybridomas on FTL435 cells, which were used as the immunogen. FTL435 cells (5×10^6 cells/ml, 0.1 ml) were seeded into each well of a 96-well microtiter plate and cultivated at 37° C. for an hour in the presence of culture supernatant of each hybridoma (10 μg/ml each).
In order to determine whether the aggregation of FTL435 cells induced by “JTT-1 antibody” stimulation was caused by the cell adhesion between intercellular adhesion molecule-1 (ICAM-1) and lymphocyte function-associated antigen-1 (LFA-1), which is a representative known pathway of cell adhesion, FTL435 cells were cultivated at 37° C. for an hour in the presence of anti-rat ICAM-1 antibody 1A29 (10 μg/ml; IgG1) or anti-rat LFA-1 antibody (10 μg/ml; IgG2a) together with “JTT-1 antibody.”
In order to further analyze the cell agglutination ability of “JTT-1 antibody,” the ability to agglutinate rat lymphoblast cells activated with concanavalin A stimulation was analyzed in the same manner as mentioned above.

## CCCCCCCCCCCCCC(=O)O[C@@H]1[C@@H](C)[C@@]2(O)[C@@H](C=C(CO)C[C@]3(O)C(=O)C(C)=C[C@@H]23)[C@@H]2C(C)(C)[C@]12OC(C)=O [phorbol myristate acetate]
  Aggregation of activated lymphoblast cells: no aggregation through cell adhesion unless they receive the stimulation
